Source: US11746116B2, “Antibiotic resistance breakers” (KING'S COLLEGE LONDON, priority 2017, dated 2023)
Where “and” joins values, the source holds several entries; their conditions need not be identical. Equal values may be shown once. Read-outs that look alike come from different tables or passages of the source.

Legend:
[1] = test system: Staphylococcus aureus ATCC29213; assay: Murine thigh infection model, thigh bacterial burden; format: in vivo; conditions: neutropenic mice; for Log10 reduction from vehicle control / Thigh bacterial burden, Group Geometric mean / Thigh bacterial burden, Log10 Group Geometric mean: 8 h, 14 h post-infection, 18 h post infection; for decrease of thigh bacterial burden compared to vehicle group: 8 h and 14 h post infection, burden 18 h post infection
[2] = thigh infection study, treated groups, relative to day of infection
[3] = male, CD-1 (ICR), mouse, in vivo, iv, 5 mg/kg
[4] = mouse, in vivo
in vivo = conditions: male, CD-1 (ICR), mouse, iv, 5 mg/kg
[5] = Single dose pharmacokinetics study, intravenous route; conditions: 5 mg/kg
[6] = molecular target: Safetyscreen44 off target panel (Homo sapiens, UniProt Q12809); assay: Safetyscreen44, potential off target toxicity (Table 27)
Chain of Safetyscreen44 off target panel (Q12809 whole entry): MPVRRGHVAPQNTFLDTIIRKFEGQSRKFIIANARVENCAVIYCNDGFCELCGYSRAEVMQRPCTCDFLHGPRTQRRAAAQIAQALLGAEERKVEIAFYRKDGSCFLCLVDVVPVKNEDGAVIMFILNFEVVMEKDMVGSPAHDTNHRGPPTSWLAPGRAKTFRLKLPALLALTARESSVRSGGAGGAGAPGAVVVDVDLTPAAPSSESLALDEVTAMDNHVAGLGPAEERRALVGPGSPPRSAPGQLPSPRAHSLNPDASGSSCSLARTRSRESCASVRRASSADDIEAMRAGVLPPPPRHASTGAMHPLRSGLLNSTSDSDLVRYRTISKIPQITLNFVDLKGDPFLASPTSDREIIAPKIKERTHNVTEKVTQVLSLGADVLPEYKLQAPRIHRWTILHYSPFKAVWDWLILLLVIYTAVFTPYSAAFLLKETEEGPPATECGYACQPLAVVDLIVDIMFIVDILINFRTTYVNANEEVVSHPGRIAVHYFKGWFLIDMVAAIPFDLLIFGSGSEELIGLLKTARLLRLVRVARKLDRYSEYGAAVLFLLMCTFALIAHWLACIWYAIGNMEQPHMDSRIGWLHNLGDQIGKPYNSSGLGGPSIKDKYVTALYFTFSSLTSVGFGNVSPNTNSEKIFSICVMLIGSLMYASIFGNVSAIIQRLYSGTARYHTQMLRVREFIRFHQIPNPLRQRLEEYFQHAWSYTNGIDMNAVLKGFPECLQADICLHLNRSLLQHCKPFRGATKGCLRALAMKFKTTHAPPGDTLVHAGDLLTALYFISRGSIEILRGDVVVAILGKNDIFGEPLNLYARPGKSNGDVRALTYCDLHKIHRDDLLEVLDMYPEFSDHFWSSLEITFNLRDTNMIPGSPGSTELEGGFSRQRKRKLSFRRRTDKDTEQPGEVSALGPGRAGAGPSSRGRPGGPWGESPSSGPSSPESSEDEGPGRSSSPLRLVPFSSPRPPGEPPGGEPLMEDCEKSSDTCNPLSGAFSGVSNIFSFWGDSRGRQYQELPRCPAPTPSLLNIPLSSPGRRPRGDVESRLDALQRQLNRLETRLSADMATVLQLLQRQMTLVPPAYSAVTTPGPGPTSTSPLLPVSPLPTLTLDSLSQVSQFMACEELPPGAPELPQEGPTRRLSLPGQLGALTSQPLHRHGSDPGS

[7] = Male CD1 mouse, blood, Composite Mean
[8] = male, CD-1 (ICR), mouse, in vivo

C[C@H]1COc2c(N3CC[C@@H](Nc4ncccn4)C3)c(F)cc3c(=O)c(C(=O)O)cn1c23 [KSN-82-L22]
Log10 reduction from vehicle control ([1]; 20 mg/kg PO at 2 h): 5.00 log10 CFU/g
Thigh bacterial burden, Group Geometric mean ([1]; 20 mg/kg PO at 2 h): 2.01 × 10^3 cfu/g
Thigh bacterial burden, Log10 Group Geometric mean ([1]; 20 mg/kg PO at 2 h): 3.30 log10 cfu/g
Log10 reduction from vehicle control ([1]; 50 mg/kg PO at 2 h): 5.16 log10 CFU/g
Thigh bacterial burden, Group Geometric mean ([1]; 50 mg/kg PO at 2 h): 1.37 × 10^3 cfu/g
Thigh bacterial burden, Log10 Group Geometric mean ([1]; 50 mg/kg PO at 2 h): 3.14 log10 cfu/g
decrease of thigh bacterial burden compared to vehicle group ([1]; 20 mg/kg/dose oral at 2 h, 20 mg/kg): 5 log10 CFU/g and > 5 log10 CFU/g
decrease of thigh bacterial burden compared to vehicle group ([1]; 50 mg/kg/dose oral at 2 h, 50 mg/kg): 5.16 log10 CFU/g and > 5 log10 CFU/g
body weights following infection [2]: slightly increased
AUGinf [3]: 6691 ng·h/mL
Liver Blood Flow [3]: 10.4%
Bioavailability Using AUCinf ([4]; male, CD-1 (ICR)): 49-3%
Bioavailability Using AUCo.t ([4]; male, CD-1 (ICR)): 32.0%
AUGinf ([4]; male, CD-1 (ICR), po, 20 mg/kg): 13203 ng·h/mL
T½ ([4]; po, 20 mg/kg): 5-1 h
Vd (in vivo): 1 to 4 L/kg
Blood CL [5, 7]: 12.5 mL/min/kg
Clast [5, 7]: 286 ng/mL
AUC [5, 8]: 6420 ng·h/mL and 15.1 µM·h
AUC(0-inf) [5, 8]: 15.7 µM·h
Cmax [5, 8]: 9390 ng/mL and 22.1 µM
MRT [5, 8]: 1.8 h
half-life [5, 8]: 0.6 h
% inhibition, Potassium Channel hERG (human)-[3H] Dofetilide [6]: −0.2461%
